Assay results reported in patent US11629136B1, “Substituted pyridine derivatives as SARM1 inhibitors” (Nura Bio, Inc., priority 2021, dated 2023).

Target: human SARM1(50-724) (Homo sapiens (Human), UniProt Q6SZW1)
Test: SARM1 NAD hydrolase biological assay (HPLC readout of NAD and NAM peak areas)
Type: biochemical
Conditions: 40 nM human SARM1(50-724), 0.3 mM NMN, 20 μM NAD, 60 minutes at room temperature; class symbols; read-out: Average IC50
Experimental: The reaction was incubated at room temperature for 60 minutes and quenched with 20 μL of 0.4% formic acid. […] Total run time for each sample was 4 minutes. The run was isocratic with 1.5% methanol in 40 mM ammonium acetate pH 6.0. Samples were run at a flow rate of 0.8 ml/min at 55° C. Peak areas of NAD and NAM were determined using OpenLAB CDS (Chem Station edition) software. For dose-response, the compound was diluted serially 1:3 in DMSO and added to the reaction starting at a final compound concentration of 100 μM in 1% DMSO.

Sequence of human SARM1(50-724) (Q6SZW1 50-724): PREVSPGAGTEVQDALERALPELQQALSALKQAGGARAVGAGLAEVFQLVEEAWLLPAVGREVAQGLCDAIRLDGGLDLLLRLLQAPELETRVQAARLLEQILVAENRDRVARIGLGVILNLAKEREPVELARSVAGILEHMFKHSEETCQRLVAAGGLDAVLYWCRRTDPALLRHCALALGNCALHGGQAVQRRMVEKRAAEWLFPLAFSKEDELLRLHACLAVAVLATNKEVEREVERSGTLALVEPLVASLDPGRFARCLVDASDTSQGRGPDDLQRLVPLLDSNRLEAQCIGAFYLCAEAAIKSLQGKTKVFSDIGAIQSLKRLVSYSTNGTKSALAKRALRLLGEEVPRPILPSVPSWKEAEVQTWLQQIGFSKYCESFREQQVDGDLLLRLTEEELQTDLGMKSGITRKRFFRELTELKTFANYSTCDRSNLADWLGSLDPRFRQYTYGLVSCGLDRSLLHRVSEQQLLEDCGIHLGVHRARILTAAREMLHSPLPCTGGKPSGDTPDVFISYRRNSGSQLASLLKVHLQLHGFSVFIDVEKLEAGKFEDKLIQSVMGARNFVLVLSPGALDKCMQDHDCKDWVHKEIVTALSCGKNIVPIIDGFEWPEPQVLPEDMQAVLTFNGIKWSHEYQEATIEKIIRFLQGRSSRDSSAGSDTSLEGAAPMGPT

| IC50 [nM] | Structure (SMILES) |
| --- | --- |
| < 1000 | Fc1cnccc1Cc1c[nH]c(CC(F)(F)F)n1 [Example 36, 3-Fluoro-4-((2-(2,2,2-trifluoroethyl)-1H-imidazol-4-yl)methyl)pyridine] |
| 1000 to 10000 | OC(c1nc(Cc2ccncc2)c[nH]1)(C(F)(F)F)C(F)(F)F [Example 39, 1,1,1,3,3,3-Hexafluoro-2-(4-(pyridin-4-ylmethyl)-1H-imidazol-2-yl)propan-2-ol] |
